Ends that are not written are not given here.
Experiments:
Cladosporium herbarum = settings: 2% malt extract medium, 1.5–2×10^3 spores/ml, room temperature, 3d, visual screening; lowest concentration with no visible growth; at least two independent replicates
Botrytis cinerea = settings: 2% malt extract medium, 1.5–2×10^3 spores/ml, room temperature, 3d, visual screening; lowest concentration with no visible growth; at least two independent replicates
human erythrocytes = settings: Table S5; ref Zasloff, 1987; cited from earlier work
Fusarium solani = settings: 2% malt extract medium, room temperature, 3d; concentration range 1 to 64 µg/ml
[1] = test system: Pseudomonas syringae pv. tomato; settings: LB-medium, about 10^5 CFU/ml, 27°C, 1–2d, OD590 nm; at least two independent replicates
[2] = test system: Pectobacterium carotovorum ssp. carotovorum; settings: LB-medium, about 10^5 CFU/ml, 27°C, 1–2d, OD590 nm; at least two independent replicates
tested plant pathogens = assay: Microdilution assay, activity summarised over several tested plant pathogens; assay type: cell-based; settings: statement over some / the majority of the tested plant pathogens or bacteria
Method: In-vitro inhibition assays were performed in sterile flat-bottom 96-well polypropylene-plates (Greiner bio-one, Frickenhausen, Germany). 10 µl (antibacterial assay) or 20 µl (antifungal assay) of each concentration were loaded per well. Fresh bacterial colonies were transferred into LB-medium, grown to an OD600 nm of 0.08–0.1 and diluted 1∶100 with medium. 90 µl of this suspension containing about 10^5 CFU/ml of bacteria were added to each well resulting in final peptide concentrations from 0 to 100 µg/ml. After incubation at 27°C for 1–2d bacterial growth was analyzed by measuring the OD590 nm using a Tecan Genios microplate reader (Crailsheim, Germany).
Spores of plant pathogenic fungi were collected by washing sporulating cultures with water. Spore concentration was determined by haematocytometer and adjusted to 1.5–2×10^3 spores/ml in 2% malt extract medium. 80 µl of fungal spores were added per well resulting in final peptide concentrations from 0 to 100 µg/ml. After incubation at room temperature for 3d on a rotary shaker (300 rpm), fungal growth was determined by measuring the OD590 nm (Alternaria sp.) or by visual screening of the plates (Botrytis sp., Cladosporium sp.). The lowest peptide concentration, where no visible microbial growth could be detected, was determined for each organism-peptide combination and referred to as the minimal inhibitory concentration (MIC). At least two independent replicates were performed.

[3] = test system: Clavibacter michiganensis ssp. michiganensis; settings: LB-medium, about 10^5 CFU/ml, 27°C, 1–2d, OD590 nm; at least two independent replicates
[4] = test system: Pseudomonas syringae pv. syringae; settings: LB-medium, about 10^5 CFU/ml, 27°C, 1–2d, OD590 nm; at least two independent replicates
Xanthomonas vesicatoria = settings: LB-medium, about 10^5 CFU/ml, 27°C, 1–2d, OD590 nm; at least two independent replicates
Pseudomonas corrugata = settings: LB-medium, about 10^5 CFU/ml, 27°C, 1–2d, OD590 nm; at least two independent replicates
Alternaria alternata = settings: 2% malt extract medium, 1.5–2×10^3 spores/ml, room temperature, 3d, OD590 nm; lowest concentration with no visible growth; at least two independent replicates
C. herbarum = assay: Peptide spraying on inoculated tomato leaves, fungal growth; assay type: in vivo, C. herbarum on tomato (Microtom); settings: 5 µg/ml peptide sprayed 22 h after inoculation (10^4 spores/ml); fungal DNA by RT-PCR
Method: (§1) To determine antifungal activity of AMPs four week old tomato plants (Microtom) were inoculated with fungal spores using an aerosol can. Spores were harvested by washing sporulating plate-grown fungi (A. alternata and C. herbarum) with 62.5 mM KH2PO4 (pH 6.0) supplemented with 5.5 mM glucose and 0.1% Tween-20. One leaf per plant (three plants per treatment) was sprayed adaxial and abaxial with 500 µl spore suspension (10^4 spores/ml). In this way approximately 100 µl spore suspension was applied directly onto the plant surface. Plants were covered with a plastic cap to guarantee high humidity and incubated at 20°C. After two hours the T0 tissue sample was collected. AMPs were sprayed onto the leaf surface 22 h after inoculation. Leaves were harvested 24 h and 48 h after peptide treatment. Frozen material was homogenized in liquid nitrogen and fungal DNA was isolated. Quantification of fungal DNA content was done by qRT-PCR amplifying the nuclear encoded ribosomal internal transcribed spacer (ITS) regions. ITS1-forward and ITS4-reverse primers were used at an annealing temperature of 60°C: For A. alternata: ITS1-Alt-for, 5′-[…]-3′ and ITS4_Alt-rev, 5′-[…]-3′ and for C. herbarum: ITS1-Cla-for 5′-[…]-3′ and ITS4-Cla-rev, 5′-[…]-3′ (synthesized by metabion, Munich, Germany). […] Differences between the mean values were analysed using an unpaired t-test analysis of variance.

[5] = test system: Arabidopsis mesophyll protoplasts; assay: Phytotoxicity on plant protoplasts; assay type: cell-based; settings: concentrations up to 100 µg/ml
Method: Phytotoxicity was measured on Arabidopsis mesophyll protoplasts prepared from leaves as described in [80]. 80 µl protoplast suspension containing about 5000 protoplasts were incubated with 20 µl peptide solution. Final peptide concentrations were 0, 10, 100 and 200 µg/ml. The phytotoxic effect of antimicrobial peptides was observed after 1 h with a light microscope. Hints to cell death are loss of spherical shape, chloroplast release and/or agglomeration of protoplasts.

A. alternata = assay: Peptide spraying on inoculated tomato leaves, fungal growth; assay type: in vivo, A. alternata on tomato (Microtom); settings: 50 µg/ml peptide sprayed 22 h after inoculation (10^4 spores/ml); fungal DNA by RT-PCR
Method: as §1

For “GIGKFLHSAKKFGKAFVGEIMNS [Magainin II, reference compound]”, the MIC (Cladosporium herbarum) is given as 64 µg/mL, the MIC (Botrytis cinerea) is given as 64 µg/mL and the Hemolytic activity (human erythrocytes) is given as 5 µg/mL. For the same substance, the MIC (Fusarium solani) was 2 µg/mL, the MIC [1] was 32 µg/mL and the MIC [2] was greater than 64 µg/mL. For the same substance, the “active concentrations (MIC)” value (tested plant pathogens) was 1 to 8 µg/mL, the MIC [3] was 32 µg/mL and the MIC [4] was greater than 64 µg/mL. For the same substance, the MIC (Xanthomonas vesicatoria) was 8 µg/mL, the MIC (Pseudomonas corrugata) was 32 µg/mL and the MIC (Alternaria alternata) was greater than 64 µg/mL.

Work on KRRLIARILRLAARALVKKR-NH2 [SP13-D] yielded an MIC (Cladosporium herbarum) of 5 µg/mL, an MIC (Botrytis cinerea) greater than 40 µg/mL and an MIC [1] of 1 µg/mL. For the same substance, the MIC [2] was greater than 40 µg/mL, the “growth inhibition on tomato leaves” value (C. herbarum) was “More than 80%” and the MIC [3] was 10 µg/mL. The “phytotoxicity (in words)” value [5] was “no phytotoxicity”, the MIC (Xanthomonas vesicatoria) was 2 µg/mL and the MIC (Pseudomonas corrugata) was 40 µg/mL. The MIC (Alternaria alternata) was 20 µg/mL.

Substance LRFLKKILKHLF-NH2 [SP10-D] has an MIC (Cladosporium herbarum) of 5 µg/mL, an MIC (Botrytis cinerea) of 10 µg/mL and an MIC [2] greater than 40 µg/mL. The “growth inhibition on tomato leaves” value (A. alternata) was “around 70%”, the MIC [3] was 5 µg/mL and the “phytotoxicity (in words)” value [5] was “no phytotoxicity”. For the same substance, the MIC (Xanthomonas vesicatoria) was 2 µg/mL and the MIC (Alternaria alternata) was 5 µg/mL.
